In US20260284208A1, “SYSTEM” (Oxford University Innovation Limited, priority 2023, published 2026):

Tested on: library of 8,380 IKZF3 degrons (ZF-eGFP/mCherry reporter) in Jurkat cells
Assay: Pooled library screen (FACS, NGS, limma voom LogFC of positive vs negative read counts)
Format: cell-based, human
Summary of the method: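 Cells were lentivirally transduced at MOI <0.3, and mCherry+ cells were sorted 6 days later. Eight days after sorting, cells were treated with DMSO or thalidomide analog for 18 h at 37 °C. mCherry+GFPlow (DMSO-set gate, DAPI-excluded) and remaining cells were sorted, and degrons were PCR-amplified from gDNA and sequenced (>600× coverage, 3 biological replicates).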

Molecule `O=C1CCC(N2C(=O)c3ccc(N4CCOCC4)cc3C2=O)C(=O)N1` (centres unmarked) [B03] has a B03_logFC (Degron-ID 4175, SEQ ID NO 3945, 46F_47W_49E_50Q_52G_53A_54S_55F_67L) of 2.767, a B03_logFC (Degron-ID 4189, SEQ ID NO 3997, 46F_47W_49E_50V_52G_53A_54L_55F_67L) of 2.69 and a B03_logFC (Degron-ID 4212, SEQ ID NO 4019, 46F_47W_49N_50I_52G_53A_54P_55F_67L) of 2.659. The B03_logFC (Degron-ID 4216, SEQ ID NO 3948, 46F_47W_49N_50I_52G_53A_54T_55F_67L) was 2.757, the B03_logFC (Degron-ID 4217, SEQ ID NO 3953, 46F_47W_49N_50I_52G_53A_54V_55F_67L) was 2.75 and the B03_logFC (Degron-ID 4265, SEQ ID NO 3969, 46F_47W_49P_50I_52G_53A_54G_55F_67L) was 2.729. The B03_logFC (Degron-ID 4267, SEQ ID NO 4028, 46F_47W_49P_50I_52G_53A_54I_55F_67L) was 2.643, the B03_logFC (Degron-ID 4270, SEQ ID NO 3946, 46F_47W_49P_50I_52G_53A_54M_55F_67L) was 2.765 and the B03_logFC (Degron-ID 4279, SEQ ID NO 3996, 46F_47W_49P_50I_52G_53A_54Y_55F_67L) was 2.691. The B03_logFC (Degron-ID 4307, SEQ ID NO 3975, 46F_47W_49P_50V_52G_53A_54I_55F_67L) was 2.72, the B03_logFC (Degron-ID 4366, SEQ ID NO 3950, 46F_47Y_49D_50V_52G_53A_54H_55F_67L) was 2.757 and the B03_logFC (Degron-ID 4368, SEQ ID NO 4018, 46F_47Y_49D_50V_52G_53A_54K_55F_67L) was 2.66. It also gave a B03_logFC (Degron-ID 4456, SEQ ID NO 4010, 46F_47Y_49N_50I_52G_53A_54T_55F_67L) of 2.672, a B03_logFC (Degron-ID 4503, SEQ ID NO 4007, 46F_47Y_49P_50I_52G_53A_54E_55F_67L) of 2.675 and a B03_logFC (Degron-ID 4510, SEQ ID NO 3967, 46F_47Y_49P_50I_52G_53A_54M_55F_67L) of 2.732. The B03_logFC (Degron-ID 4544, SEQ ID NO 4004, 46F_47Y_49P_50V_52G_53A_54F_55F_67L) was 2.679, the B03_logFC (Degron-ID 4559, SEQ ID NO 4033, 46F_47Y_49P_50V_52G_53A_54Y_55F_67L) was 2.636 and the B03_logFC (Degron-ID 6474, SEQ ID NO 3991, 46L_47A_49P_50I_52G_53F_54R_55C_67L) was 2.7. The B03_logFC (Degron-ID 6480, SEQ ID NO 4002, 46L_47C_49P_50I_52G_53F_54A_55C_67L) was 2.685, the B03_logFC (Degron-ID 6494, SEQ ID NO 4012, 46L_47C_49P_50I_52G_53F_54R_55C_67L) was 2.668 and the B03_logFC (Degron-ID 6496, SEQ ID NO 3983, 46L_47C_49P_50I_52G_53F_54T_55C_67L) was 2.713. The B03_logFC (Degron-ID 6544, SEQ ID NO 3994, 46L_47F_49P_50I_52G_53F_54F_55C_67L) was 2.694, the B03_logFC (Degron-ID 6545, SEQ ID NO 3958, 46L_47F_49P_50I_52G_53F_54G_55C_67L) was 2.743 and the B03_logFC (Degron-ID 6547, SEQ ID NO 3973, 46L_47F_49P_50I_52G_53F_54I_55C_67L) was 2.724. For the same molecule, the B03_logFC (Degron-ID 6559, SEQ ID NO 3972, 46L_47F_49P_50I_52G_53F_54Y_55C_67L) was 2.725, the B03_logFC (Degron-ID 6579, SEQ ID NO 3987, 46L_47G_49P_50I_52G_53F_54Y_55C_67L) was 2.704 and the B03_logFC (Degron-ID 6581, SEQ ID NO 3985, 46L_47H_49P_50I_52G_53F_54C_55C_67L) was 2.71. The B03_logFC (Degron-ID 6593, SEQ ID NO 4008, 46L_47H_49P_50I_52G_53F_54Q_55C_67L) was 2.674, the B03_logFC (Degron-ID 6600, SEQ ID NO 3995, 46L_47I_49P_50I_52G_53F_54A_55C_67L) was 2.692 and the B03_logFC (Degron-ID 6715, SEQ ID NO 3949, 46L_47Q_49P_50I_52G_53F_54S_55C_67L) was 2.757. For the same molecule, the B03_logFC (Degron-ID 6759, SEQ ID NO 4005, 46L_47S_49P_50I_52G_53F_54Y_55C_67L) was 2.677, the B03_logFC (Degron-ID 6761, SEQ ID NO 4009, 46L_47T_49P_50I_52G_53F_54C_55C_67L) was 2.672 and the B03_logFC (Degron-ID 6793, SEQ ID NO 3980, 46L_47V_49P_50I_52G_53F_54Q_55C_67L) was 2.717. The B03_logFC (Degron-ID 6803, SEQ ID NO 4032, 46L_47W_49P_50I_52G_53F_54E_55C_67L) was 2.637, the B03_logFC (Degron-ID 6807, SEQ ID NO 3992, 46L_47W_49P_50I_52G_53F_54I_55C_67L) was 2.695 and the B03_logFC (Degron-ID 7568, SEQ ID NO 3954, 46F_47W_49E_50I_52G_53R_54K_55F_67L) was 2.75. It also gave a B03_logFC (Degron-ID 7574, SEQ ID NO 3993, 46F_47W_49E_50I_52G_53R_54R_55F_67L) of 2.695, a B03_logFC (Degron-ID 7699, SEQ ID NO 3976, 46L_47F_49E_50I_52G_53F_54Y_55C_67L) of 2.72 and a B03_logFC (Degron-ID 7894, SEQ ID NO 3947, 46L_47S_49E_50I_52G_53F_54R_55C_67L) of 2.76. For the same molecule, the B03_logFC (Degron-ID 7920, SEQ ID NO 3990, 46L_47V_49E_50I_52G_53F_54A_55C_67L) was 2.702, the B03_logFC (Degron-ID 7971, SEQ ID NO 3955, 46L_47Y_49E_50I_52G_53F_54N_55C_67L) was 2.749 and the B03_logFC (degron 1074 (SEQ ID NO 3496) 46F_47F_49E_50V_52G_53A_54R_55F_67L) was 3.71. For the same molecule, the B03_logFC (degron 4088 (SEQ ID NO 3502) 46F_47W_49D_50I_52G_53A_54K_55F_67L) was 3.696, the B03_logFC (degron 4091 (SEQ ID NO 3497) 46F_47W_49D_50I_52G_53A_54N_55F_67L) was 3.708 and the B03_logFC (degron 4395 (SEQ ID NO 3500) 46F_47Y_49E_50I_52G_53A_54S_55F_67L) was 3.7. The B03_logFC (degron 4420 (SEQ ID NO 3499) 46F_47Y_49E_50V_52G_53A_54A_55F_67L) was 3.704, the B03_logFC (degron 4551 (SEQ ID NO 3503) 46F_47Y_49P_50V_52G_53A_54N_55F_67L) was 3.692 and the B03_logFC (degron 6814 (SEQ ID NO 3498) 46L_47W_49P_50I_52G_53F_54R_55C_67L) was 3.704. For the same molecule, the B03_logFC (degron 7973 (SEQ ID NO 3495) 46L_47Y_49E_50I_52G_53F_54Q_55C_67L) was 3.711 and the B03_logFC (degron 7975 (SEQ ID NO 3501) 46L_47Y_49E_50I_52G_53F_54S_55C_67L) was 3.698.
